Measurements published in patent publication US11236086B2, “Substituted pyrrolopyridines as inhibitors of activin receptor-like kinase” (BLUEPRINT MEDICINES CORPORATION, priority 2017, dated 2022).

Columns and labels:
[1] = target: T1, ALK2R206H (mutant ALK2, N-terminally tagged with GST) (Homo sapiens, UniProt Q04771, R206H); test: ALK binding assay (LANTHASCREEN TR-FRET competitive binding, displacement of Kinase Tracer 178); conditions: read-out: Binding Assay (IC50 class)
T1 construct: purchased Carna Bioscience or ThermoFisher 09-148 or PV6232
T1 sequence (Q04771 21-509 R206H): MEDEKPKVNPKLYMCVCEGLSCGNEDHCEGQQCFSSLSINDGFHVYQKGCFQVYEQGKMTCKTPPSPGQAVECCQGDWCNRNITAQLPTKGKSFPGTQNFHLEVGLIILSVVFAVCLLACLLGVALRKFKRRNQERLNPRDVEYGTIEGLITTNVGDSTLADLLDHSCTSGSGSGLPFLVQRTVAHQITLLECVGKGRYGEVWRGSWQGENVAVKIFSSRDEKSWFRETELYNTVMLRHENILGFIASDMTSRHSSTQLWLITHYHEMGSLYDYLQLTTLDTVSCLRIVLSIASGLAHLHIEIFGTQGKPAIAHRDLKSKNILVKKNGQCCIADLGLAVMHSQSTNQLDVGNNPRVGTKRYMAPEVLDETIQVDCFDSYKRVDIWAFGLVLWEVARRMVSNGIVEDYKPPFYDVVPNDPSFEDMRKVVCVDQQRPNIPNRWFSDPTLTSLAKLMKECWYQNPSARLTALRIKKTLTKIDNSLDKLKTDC
How it was run: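 Competitive displacement of Kinase Tracer 178 (50 nM) from N-terminally GST-tagged mutant ALK2 R206H (2-5 nM) by compound, detected by TR-FRET with Eu-anti-GST antibody (4-10 nM). 30 min room temperature incubation, 1% DMSO final; normalized signal fitted to 4-parameter log dose response for IC50.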

human ALK2 R206H = target: T2, human ALK2 R206H (Homo sapiens, UniProt Q04771, R206H); test: Cell-based ALK2-R206H cell activity assay (Smad1-Ser463/Ser465 phosphorylation by AlphaLISA in HEK293-ALK2-R206H cells); conditions: phospho-Smad1 AlphaLISA, read-out: Cell Line (Cell Assay, IC50 class)
T2 construct: expressed in transfected cells; host or cells: HEK293 (ATCC CRL1573), lentivirus transduction, blasticidin selection
T2 sequence (Q04771 21-509 R206H): T1 sequence (Q04771 21-509 R206H)
How it was run: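 IC50 comes from a 10-point curve, scaled between DMSO and 1 μM LDN193189 controls, of lysate phospho-Smad1 (Ser463/465) measured by AlphaLISA. Compounds (top 10 μM or 1 μM, 3-fold steps, duplicates) were given 2-3 h to serum-starved HEK293 cells that stably express FLAG-tagged human ALK2 R206H.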

IC50 [1] [nM] | IC50 (human ALK2 R206H) [nM] | SMILES
≤ 10 | ≤ 100 | CCN1CCN(c2ccc(-c3cc4c(N5CCN(C(=O)C6CC6)CC5)ccnc4[nH]3)c(OC(F)F)c2)CC1 [Compound 475]
≤ 10 | ≤ 100 | CCOC(=O)N1CCN(c2ccnc3[nH]c(-c4ccc(C5(OC)CCN(C(C)CF)CC5)cn4)cc23)CC1 (stereo not drawn) [Compound 476]
≤ 10 | ≤ 100 | CCN1CCN(c2ccc(-c3cc4c(N5CCN(C(=O)C6CC6)CC5)ccnc4[nH]3)c(OC(F)(F)F)c2)CC1 [Compound 477]
≤ 10 | ≤ 100 | COC1(c2ccc(-c3cc4c(N5CCN(C(=O)OC6COC6)CC5)ccnc4[nH]3)nc2)CCN(C[C@H](C)F)CC1 [Compound 478]
≤ 10 | ≤ 100 | COC1(c2ccc(-c3cc4c(N5CCN(C(=O)OC6COC6)CC5)ccnc4[nH]3)nc2)CCN(C[C@@H](C)F)CC1 [Compound 479]

Second part, the compound before the results:

SMILES | IC50 [1] [nM] | IC50 (human ALK2 R206H) [nM]
O=C(O[C@H]1C[C@H](F)C1)N1CCN(c2ccnc3[nH]c(-c4ccc(C5(O)CCOCC5)cn4)cc23)CC1 [Compound 462] | ≤ 10 | ≤ 100
CN1CCN(C(=O)COc2ccc(-c3cc4c(N5CCN(C(=O)C6CC6)CC5)ccnc4[nH]3)cc2)CC1 [Compound 464] | ≤ 10 | 100 to 500
CC(C)N1CCC[C@@H](c2ccc(-c3cc4c(N5CCN(C(=O)OC6COC6)CC5)ccnc4[nH]3)cc2)C1 [Compound 466] | ≤ 10 | ≤ 100
CC(C)N1CCC(c2ccc(-c3cc4c(N5CCN(C(=O)OC6COC6)CC5)ccnc4[nH]3)cc2)CC1 [Compound 467] | ≤ 10 | ≤ 100
CC(C)N1CCC[C@H](c2ccc(-c3cc4c(N5CCN(C(=O)OC6COC6)CC5)ccnc4[nH]3)cc2)C1 [Compound 468] | ≤ 10 | ≤ 100
CC(C)N1CCC(c2ccc(-c3cc4c(N5CCN(C(=O)OC6COC6)CC5)ccnc4[nH]3)nc2)CC1 [Compound 469] | ≤ 10 | ≤ 100
CC(=O)N1CCc2sc(-c3[nH]c4nccc(N5CCN(C(=O)OC6COC6)CC5)c4c3C#N)nc2C1 [Compound 470] | ≤ 10 | ≤ 100
COC1(c2ccc(-c3cc4c(N5CCN(C(=O)OC6COC6)CC5)ccnc4[nH]3)c(C#N)c2)CCOCC1 [Compound 472] | ≤ 10 | ≤ 100
CC(C)N1CCC(C)(c2ccc(-c3cc4c(N5CCN(C(=O)OC6COC6)CC5)ccnc4[nH]3)cc2)CC1 [Compound 473] | ≤ 10 | ≤ 100
CS(=O)(=O)N1CCc2nc(-c3cc4c(N5CCN(C(=O)OC6COC6)CC5)ccnc4[nH]3)sc2C1 [Compound 474] | ≤ 10 | ≤ 100
